Experiments:
[1] = system: WT C57BL/6 mice, HDM model; test: Methacholine-induced airway hyper-responsiveness (AHR) in HDM model; assay type: in vivo; conditions: 25 mg/mouse in 40 ml saline oropharyngeal 24 h after each challenge, 3-5 days post HDM challenge, vs vehicle
Experimental: Twenty-four hours after each challenge, mice received either scrambled vehicle or a 10-mer SP-A peptide (KEQCVEMYTD (SEQ ID NO: 4)) (arrow) that encompassed the active site containing 223Q (at a physiologic dose of […] delivered in […] of sterile saline) by oropharyngeal instillation. Pulmonary function tests were conducted 3-5 days post HDM challenge to determine if the SP-A peptide could protect from methacholine-induced airway hyper-responsiveness (AHR). Mice that received the SP-A peptide after HDM challenge had attenuated: overall resistance (Rrs) and central airways resistance (Rn) as compared to HDM challenged mice that received vehicle treatment.

[2] = system: SP-A deficient mice challenged in the HDM model; test: HDM model in SP-A deficient mice, therapeutic SP-A peptides; assay type: in vivo; conditions: peptide given 24 hrs after the last challenge; for eosinophilia in the lavage compartment: compared to vehicle treated mice (FIG. 3A); for mucin production: compared to vehicle treated mice (FIG. 3B)
Experimental: FIGS. 3A and 3B show the analysis of inflammation in mice that receive “therapeutic” SP-A peptides in the HDM model. Mice were sensitized and challenged in the HDM model according to common methods. Twenty-four hours after the last challenge, mice received either vehicle, a 20-mer or a 10-mer that encompassed the active site containing 223Q. BAL cellularity (left panel) and mucin production (right panel) were assessed 7 days post challenge to assess the role of SP-A on allergic airways resolution. […] Both 223Q and 223K mice are somewhat protected in the acute phase of this model.

[3] = system: WT C57BL/6 mice challenged with IL-13; test: Methacholine-induced airway hyper-responsiveness (AHR) in IL-13 model; assay type: in vivo; conditions: IL-13 model (3.9 ug IL-13 daily, 3 days); oropharyngeal 2 h after each challenge; 24 hours post IL-13 challenge; vs vehicle
Experimental: WT C57BL/6 mice were challenged with 3.9 ug of IL-13 (arrow) once a day for 3 consecutive days via oropharyngeal instillation. […] Pulmonary function tests were conducted 24 hours post IL-13 challenge to determine if the SP-A peptide could protect from methacholine-induced airway hyper-responsiveness (AHR). Mice that received the SP-A peptide after HDM challenge had attenuated: overall resistance (Rrs) and central airways resistance (Rn) as compared to HDM challenged mice that received vehicle treatment.

[4] = system: human airway epithelial cells; test: IL-13 exposure of airway epithelial cells from asthmatics at air liquid interface, MUC5AC by RT-PCR; assay type: cell-based
Experimental: Airway epithelial cells at ALI from two asthmatic subjects exposed to IL-13 alone, and IL-13 plus SP-A2 peptide that include the Gln at position 223 in the lectin domain (2230). Full-length oligomeric SP-A that is homozygous at position 223Q/Q was used as a positive control. After 48 hours incubation, MUCSAC expression was determined by RT-PCR
Experiments were conducted wherein airway epithelial cells from two subjects with asthma not on controller therapy were cultured at air liquid interface for two weeks. In separate conditions the cells were exposed to each peptide at 50 ng/ml for 30 minutes followed by IL-13 at 50 ng/ml and incubated for 48 hours. Cells were placed in Trizol MUCSAC was determined by RT-PCR. […] The 10 AA length is especially useful as a therapeutic agent as its size renders it able to be packaged into an inhaler type of device for delivery to the airways.
Regarding FIG. 8, human bronchial epithelial cells obtained from a well-phenotyped asthmatic were grown at an ALI for two weeks prior to experimentation. For challenge, each of the SP-A test peptides (50 μg/ml) were added to the apical compartment at least 30 minutes prior to IL-13 challenge. Muc5AC was analyzed by RT-PCR from cell lysates and analyzed as a fold over the control samples. Peptide sequences: 20-mer […] (SEQ ID NO: 8), peptide 1 PAGRGKEQCV (SEQ ID NO: 2), peptide 2 EMYTDGQWND (SEQ ID NO: 3), peptide 3 KEQCVEMYTD (SEQ ID NO: 4) FL=full length oligomeric SP-A that is extracted from lavage of alveolar proteinosis individuals.

[5] = system: WT C57BL/6 mice, house dust mite (HDM) model; test: House dust mite (HDM) model in WT C57BL/6 mice, mucin production and BAL eosinophilia; assay type: in vivo; conditions: WT C57BL/6, HDM days 0, 7, 14; 25 μg/mouse oropharyngeal 24 h after last challenge (FIGS. 5, 6)
Experimental: Regarding FIG. 5, WT C57BL/6 mice were sensitized and challenged in the house dust mite (HDM) model according to standard methods on days 0, 7, 14 (black arrows). Twenty-four hours after the last challenge, mice received either scrambled vehicle or a 20-mer SP-A peptide (dotted arrow) that encompassed the active site containing 223Q (at a physiologic dose of 25 μg/mouse delivered in 40 μl of sterile saline) by oropharyngeal instillation. Lung histological sections were analyzed for mucin production as assessed by PAS stain/scoring to determine if the SP-A peptide could protect from HDM-induced airway mucin production. […] Peptide sequence: […] (SEQ ID NO: 8).
Regarding FIG. 6, WT C57BL/6 mice were sensitized and challenged in the house dust mite (HDM) model according to standard methods on days 0, 7, 14 as shown in FIG. 5 (black arrows). […] Lung histological sections were analyzed for mucin production as assessed by PAS stain/scoring to determine if the SP-A peptide could protect from HDM-induced airway mucin production. […]
Regarding FIG. 7, WT C57BL/6 mice were sensitized and challenged in the house dust mite (HDM) model according to standard methods on days 0, 7, 14 as shown in FIG. 5 (black arrows). […] Bronchoalveolar lavage samples were analyzed for eosinophilia to determine if the SP-A peptide could protect from HDM-induced airway eosinophilia by decreasing eosinophil viability. […]

eosinophils = test: In vitro studies with isolated eosinophils; assay type: cell-based
[6] = airway epithelial cells from asthmatic subjects with allergic or type 2 asthma

Row | Substance | central airways resistance (Rn) [1] | overall resistance (Rrs) [1] | eosinophilia in the lavage compartment [2] | mucin production [2] | central airways resistance (Rn) [3] | overall resistance (Rrs) [3] | MUCSAC expression (RT-PCR) ([4]; cells from two asthmatic subjects at ALI, peptide 50 ng/ml 30 minutes, then IL-13 50 ng/ml, 48 hours (FIG. 4)) | mucin production (PAS stain/scoring) [5] | eosinophil apoptosis (eosinophils) | IL-6 induced by IL-13 [4, 6] | mucin induced by IL-13 [4, 6]
1 | KEQCVEMYTD (listed as Homo sapiens) [SEQ ID NO: 4] | attenuated | attenuated | significantly less eosinophilia | less mucin production | attenuated | attenuated | attenuates |  |  |  | 
2 | PAGRGKEQCVEMYTDGQWND (listed as Homo sapiens) [SEQ ID NO: 8] |  |  | significantly less eosinophilia | less mucin production |  |  |  | reduce mucin production |  |  | 
3 | SP-A: Surfactant protein-A, a secreted lipoprotein complex; full length oligomeric SP-A extracted from lavage of alveolar proteinosis individuals |  |  |  |  |  |  |  |  | directly stimulates eosinophil apoptosis | attenuates | attenuates

— patent US12678475B2, “Compositions and methods for treating and preventing lung disease” (ARIZONA BOARD OF REGENTS ON BEHALF OF THE UNIVERSITY OF …, priority 2016, dated 2026)
